Data as given in patent publication US20070037872A1, “Inducing peripheral blood vesel vasodilation” (Mars, Incorporated, priority 2005, published 2007).

Tested on: peripheral microvascular endothelial function
Test: PAT with reactive hyperemia after L-NMMA infusion followed by cocoa beverage
Type: in vivo, human
Procedure: Peripheral arterial tonometry (PAT) measurements were taken of three volunteers according to the following study. This is a non-invasive technique for examining peripheral microvascular endothelial function. Microvascular endothelial function is assessed by the direct measurement of changes in digital (finger) pulse volume following reactive hyperemia.
On study days, the subjects reported in a fasted state between 7:30 and 9:00 a.m. Body weight, resting heart rate, and blood pressure were all re-measured. […] Subjects then lied down on their backs to acclimatize to ambient conditions. After 30 minutes, a non-invasive, sterile, single-use finger probe was fitted to a finger and a baseline PAT reading was taken and recorded for 10 minutes. The subjects were then subjected to a reactive hyperemia procedure (“RH”) which consisted of a period of blood flow occlusion to the measurement arm using an upper arm blood pressure cuff, pressurized to achieve a supra-systolic level (equivalent to about 60 mm mercury above systolic blood pressure) for 5 minutes. Then the cuff was released and the data recorded for another five minutes. Following this first reading, subjects drank 3 bottles of Cocoa Drink A (total 483 mg). Over the next six hours, the PAT response was monitored at two, four and six hours.
The infusion of L-NMMA occurred over 30 minutes (1mg/kg/min for the first 3 minutes and then 0.2 mg/kg/min for the next 27 minutes). Following infusion of the L-NMMA, 3 bottles of the beverage were fed (483 mg) per subject. Readings were done for baseline, after infusion of L-NMMA and after consumption of cocoa.
Referring to Table 1, RH indicates PAT value following a reactive hyperemia procedure; “baseline” refers to baseline reading prior to occlusion period.
The data supports an NO-independent mechanism of action of the compounds described herein. […] This indicates the blood flow was affected via an NO-independent mechanism. Peripheral blood flow/vasodilation is a function of both NO and NO-independent vasodilators. The endothelium derived NO is one of the most important mediators of vascular tone; however, NO is not the only compound regulating vascular tone. As such, being able to operate via NO-independent mechanisms means that the compound of the invention can exert important vasodilatory effects on the microvasculature which are independent of an intact endothelium. If the endothelium is compromised in any way and simply cannot produce enough NO, the fact that the compounds of the invention act in an endothelium independent fashion offers greater therapeutic benefits, which was previously unexpected.

[1] = Subject #1, Day 11, after 30 min intravenous infusion of L-NMMA
[2] = Subject #5, Day 10, after 30 min intravenous infusion of L-NMMA
[3] = Subject #6, Day 11, after 30 min intravenous infusion of L-NMMA

With `CNC(=N)NCCC[C@H](N)C(=O)O` [LNMMA] the “Baseline (baseline PAT reading prior to occlusion period)” value (“Baseline” for short) [1] was 616, the “RH (PAT value following a reactive hyperemia procedure)” value [1] was 1.61 and the “Baseline” value [2] was 689. The “RH (PAT value following a reactive hyperemia procedure)” value [2] was 1.42, the “Baseline” value [3] was 597 and the “RH (PAT value following a reactive hyperemia procedure)” value [3] was 1.75. For the same compound, the “change in the RH value” (all three subjects, after L-NMMA infusion) was “dramatic reduction”.
